From the METLIN SMRT retention time set (Domingo-Almenara et al. 2019)

Experiment: gradient 5% acetonitrile 3 min, to 50% in 2 min, to 85% in 15 min, held 3 min, 100 µL/min
Conditions: column: Zorbax Extend-C18 2.1 x 50 mm; eluents: water / acetonitrile, 0.1% formic acid
In short: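 The mobile phases were water and acetonitrile, each with 0.1% formic acid, pumped at 100 μL/min through a Zorbax Extend-C18 column (2.1 × 50 mm, 1.8 μm). Pure standards were injected as mixtures of ~100 molecules and detected by a quadrupole time-of-flight mass spectrometer in positive and negative ionization mode. Retention time came from computationally picked adduct peaks, each inspected by hand.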

Structure (SMILES)	RP-LC retention time
CCOc1ccc(-c2nc(C3CC(=O)N(c4ccc(C)cc4)C3)no2)cc1 (stereo not given)	1070 s
CCSc1nnc(-c2nn(C)c3c2CN(S(=O)(=O)c2ccc(OC)cc2)CC3)n1CC	905 s
CC(C)Cn1c(=O)c(C(=O)NCc2cccc(C(F)(F)F)c2)nc2cccnc21	1030 s
COCCCNC(=O)C1(c2ccc(NC(=O)c3cccs3)cc2)CC1	746 s
COc1ccccc1-c1nnc(NC(=O)C2CCCN2S(=O)(=O)c2ccc(F)cc2)o1 (stereo not given)	717 s
Cc1csc(-c2cc(S(=O)(=O)N3CCOCC3)cn2CC(=O)N2CCCC2)n1	770 s
Cc1ccc(CNC(=O)CSc2nc3nc(C)cc(C)n3n2)cc1	697 s
Nc1ccc(Cl)cc1C(=O)c1ccccc1Cl	1140 s
CCSc1nc2ccc(NS(=O)(=O)c3ccc(F)c(F)c3)cc2s1	1070 s
COc1ccc(-n2c(=O)c(C(=O)Nc3ccccc3)c(O)c3cccnc32)cc1	1200 s
COc1ccc(CN2C[C@@H]3C(=O)N(C)C(=O)[C@@H]3C2)cc1OC	566 s
Cc1ccc(-c2cc(-c3nc4c5ccccc5ncn4n3)[nH]n2)c(C)c1	900 s
Cc1nnc2cc(N3CCN(S(=O)(=O)c4cccs4)CC3)cnn12	636 s
Cc1sc2ccn(C)c(=O)c2c1C(=O)NCc1ccccc1Cl	798 s
COc1ccc(-c2noc(C3CC(=O)N(c4cccc(Cl)c4)C3)n2)cc1OC (stereo not given)	934 s
Cc1cccc(N2CCN(S(=O)(=O)c3cc4n(c3)CCCN(C(C)C)C4=O)CC2)c1	921 s
Clc1ccccc1N1CCN(c2cc(-c3nc(-c4ccccc4)no3)c3ccccc3n2)CC1	1130 s
COc1cc2ccccc2cc1C(=O)Nc1nccs1	888 s
Cc1ccc(N2CC(c3nc(-c4ccccc4F)no3)CC2=O)cc1C (stereo not given)	1020 s
CCn1cnc2cc(CNC(=O)Cc3ccsc3)ccc21	578 s
Cc1ccc(Nc2nc(Cl)nc3ncn(C)c23)c(C)c1	791 s
CCOc1ccccc1NC(=O)Cn1c(N2CCOCC2)nc(COC)cc1=O	967 s
COc1ccc(OC)c(NC(=O)Nc2cc(F)c3nc(N4CCOCC4)ccc3c2)c1	863 s
Cc1noc(-c2ccc(=O)n(Cc3ccc(F)cc3)n2)n1	807 s

Structure (SMILES)	RP-LC retention time
CCc1ccc(N2CC(c3noc(-c4ccc(F)cc4)n3)CC2=O)cc1 (stereo not given)	1100 s
COC(=O)Nc1csc2c1NC(=O)CCCC2	716 s
CNC(=O)[C@@H]1CN(C(=O)c2sc(C)nc2C)C[C@H]1c1n[nH]c(C)n1	559 s
Cc1ccc(CNC(=O)c2cc3n(n2)CC(C)(C(=O)NCc2ccc(F)cc2)N(C)C3=O)cc1 (stereo not given)	741 s
Cc1ccc2nc(-c3cc(Br)ccc3F)c(Nc3ccc4c(c3)OCCO4)n2c1	737 s
Cc1nc(OCC(=O)N2CCc3ccccc32)c2c(-c3ccccc3)noc2n1	1100 s
Cc1ccccc1Nc1c(-c2cccc(O)c2)nc2cnccn12	744 s
CCCN1C(=O)COc2cc(-c3noc(C(=O)NCCC(C)C)n3)ccc21	1060 s
COc1ccccc1NC(=O)CSc1ncc(S(=O)(=O)c2ccccc2)c(N)n1	790 s
CCCN1C(=O)c2cc(S(=O)(=O)Nc3cccc(F)c3)ccc2Oc2cccnc21	1060 s
CCN(CC)c1ccc(C2C(C#N)=C(N)Oc3n[nH]c(C)c32)cc1 (stereo not given)	546 s
Cc1nnsc1C(=O)Nc1nnc(SCC(=O)Nc2ccc(F)c(Cl)c2)s1	813 s
CCOc1ccc(-c2noc(Cn3c(=O)n(-c4ccc(F)cc4)c(=O)c4sccc43)n2)cc1OC	940 s
CCOC(=O)CC(=O)Nc1nnc(SCc2nnc(-c3ccccc3C)o2)s1	817 s
Cc1ccc(C)c(NC(=O)N(C)CCc2noc(COc3ccccc3F)n2)c1	919 s
COc1ccc(C(C)NC(=O)Cn2c(=O)n(-c3ccccc3)c3ncccc32)cc1OC (stereo not given)	741 s
Cc1ccc(-c2noc(-c3nc(C4CC4)no3)n2)cc1	1160 s
Cn1nnnc1SCC(=O)Nc1nc2c(s1)C(=O)CCC2	607 s
Cn1cccc1C(=O)C(=O)Nc1ccc(C#N)cc1	872 s
Cc1nn(Cc2nc(-c3ccc(NC(=O)C4CCCO4)cc3)oc2C)c(C)c1C (stereo not given)	793 s
COC(=O)c1ccc(NC(=O)Cn2ccc3ccc(-c4nnc(C)o4)cc32)cc1	776 s
C=CCNC(=O)c1ccc2nc(C)c(C)nc2c1	626 s
Cc1cc(OCCCCOc2ccc(C#N)cc2)ccc1[N+](=O)[O-]	1250 s

Results, then the compound that gave them:

RP-LC retention time	Structure (SMILES)
549 s	O=C(Nc1ccc(N2CCOCC2)cc1)C1(CCO)CCN(c2ncccn2)C1 (stereo not given)
595 s	CN1CCC(NC(=O)c2n[nH]c3c2CN(C(=O)c2ccccc2Br)CC3)CC1
882 s	CCOc1ccc(NC(=O)C2CCN(c3c(C(=O)N(CC)CC)cnc4snc(C)c34)CC2)cc1
632 s	CCCCN1CCN(C(=O)C2CCN(c3nnc(-c4ccc(C)cc4)o3)CC2)CC1
730 s	O=C(c1ccc2[nH]ccc2c1)N1C[C@@H]2C[C@H]1C[C@@H]2NS(=O)(=O)c1ccccc1
586 s	CN1C(=O)Cc2cc(NC(=O)c3ccno3)ccc21
780 s	Cc1nn(-c2ccccc2)c2c1N(CCCC(=O)NC1CC1)C(=O)CS2
869 s	CC(C)(C)c1ccc(S(=O)(=O)N2CCC(C(=O)NCc3cscn3)CC2)cc1
530 s	CN1CCN(S(=O)(=O)c2ccc(F)c(Cl)c2)CC1
799 s	Cn1c(=O)c(N2CCC(NC(=O)NCc3ccccc3)CC2)nc2ccccc21
892 s	CCC1Oc2ccc(S(=O)(=O)N3CCC(C(=O)Nc4cccc(Cl)c4)CC3)cc2NC1=O (stereo not given)
717 s	Cc1ccc2c(c1)C(O)(CC(=O)c1ccc(F)cc1)C(=O)N2 (stereo not given)
587 s	COc1ccc(S(=O)Cc2ccc(C(=O)NCCCN3CCCCC3)o2)cc1 (stereo not given)
662 s	CCOC(=O)c1ccc(NC(=O)Cn2cnc3cc4c(cc32)OCCO4)cc1
600 s	COc1ccc(N2CC(C(=O)N3CCC(C(=O)N4CCC(C(N)=O)CC4)CC3)CC2=O)cc1 (stereo not given)
848 s	CCNC(=O)C1CCN(c2nc3ccc(-c4ccccc4F)nc3s2)CC1
975 s	Cc1ccccc1CNC(=O)CN1C(=O)CCCc2cc(S(=O)(=O)N3CCC(C)CC3)ccc21
687 s	COc1ccccc1NC(=O)N1CCCN(Cc2nc3cc(Cl)ccc3o2)CC1
745 s	CCCNC(=O)N1CC(Oc2ccc(-c3nc(C)no3)cc2)C1
962 s	CC1=C(c2ccc(C)cc2)S(=O)(=O)N=C1N1CCCN(C(=O)CC2CCCCC2)CC1
711 s	COc1ccc(N2CCN(C(=O)CCC(=O)N3CCCn4nc(-c5cccn5C)cc43)CC2)cc1
718 s	CCN1CCCCc2cc(C(=O)NCC3CCN(CC(C)C)C3)sc21 (stereo not given)

RP-LC retention time	Structure (SMILES)
996 s	Cc1ccc(Sc2nccnc2N2CCCC(C(=O)NC(C)C)C2)cc1 (stereo not given)
880 s	O=C(O)c1cc2nc(-c3ccc(F)cc3)cc(C(F)(F)F)n2n1
889 s	CCn1cnc(S(=O)(=O)N2CCCC(C(=O)Nc3ccc(Br)c(C)c3)C2)c1 (stereo not given)
946 s	CCc1cccc(C)c1NC(=O)COc1cc(C)nc(N2CCN(c3ccccc3)CC2)n1
603 s	O=C(NCCN1CCOCC1)C1c2ccccc2CC(=O)N1Cc1ccccc1 (stereo not given)
647 s	Cc1noc(CNC(=O)C2CCN(C(=O)Nc3ccccc3C(F)(F)F)CC2)n1
1010 s	CCOc1cc(C(=O)N2CCCC(C)(C(=O)NCc3ccc(C)cc3)C2)cc(OCC)c1OCC (stereo not given)
683 s	COc1ccc(C(=O)N2CCC3(C2)C(=O)Nc2ccccc23)cc1 (stereo not given)
1020 s	CC(C)n1c(=O)sc2cc(S(=O)(=O)N3CCC(C(=O)N4CCc5ccccc54)CC3)ccc21
556 s	Cc1cccc2nnc(N3CCN(C(=O)c4ccc5c(c4)OCO5)CC3)n12
684 s	CCCNc1cc(N2CCC(CCC(=O)NCc3cc(F)ccc3F)CC2)ncn1
786 s	CCc1ccc(CNC(=O)C2CCc3nc(N(CC)CC)ncc3C2)cc1 (stereo not given)
764 s	CCOC(=O)c1[nH]c(C)c(CCC(=O)N2CCC(C(=O)NCc3ccc4c(c3)OCO4)CC2)c1C
848 s	CC(=O)N1c2ccc(S(=O)(=O)N3CCCC3)cc2CC1C(=O)NCCc1ccccc1C (stereo not given)
569 s	CN1CCC(Cc2ccc(C(=O)O)cc2)CC1
885 s	FC(F)(F)c1nc(N2CCN(Cc3ccccc3)CC2)nc2c1CCCCC2
635 s	CCC(=O)N(C1CCOCC1)C1CCN(Cc2cccc(Br)c2)CC1
700 s	Cc1c(C2CCN(C(=O)NCCc3ccccc3)CC2)noc1N
595 s	O=C(CCc1cc2ccccc2[nH]c1=O)NCCN1CCCCCC1
844 s	CCC1=C(c2ccc(C)cc2)S(=O)(=O)N=C1N1CCC(C(=O)NCCCOC(C)C)CC1
729 s	CC1(C)CC(=O)c2cn(-c3ccc(F)cc3)c(=O)c(C(=O)N3CCCC3)c2C1
